Laboratory results as given in PMC8012331, “Drug-induced hepatic steatosis in absence of severe mitochondrial dysfunction in HepaRG cells: proof of multiple mechanism-based toxicity” (Cell Biology and Toxicology, 2020).

Experiments:
HepaRG cells [1] = experiment: Cellular ATP level (CellTiter-Glo) in HepaRG cells; format: cell-based, human; conditions: 4 days, vs controls
Description: Cellular ATP level was measured using the CellTiter-Glo® Luminescent Cell Viability assay purchased from Promega (Charbonnières, France), according to the manufacturer’s instructions. Briefly, control and treated HepaRG cells were first washed with warm PBS and kept for 30 min at room temperature in phenol red-free William’s E medium. Cells were next incubated with the CellTiter-Glo® reagent for 10 min at room temperature. Cells were then transferred in opaque-walled multiwell plates and the luminescent signal was quantified using a POLARstar Omega microplate reader (BMG Labtech, Ortenberg, Germany). Results were expressed in comparison to control cells.

HepaRG cells [2] = experiment: Neutral lipids with Nile red in HepaRG cells; conditions: 4 days, selected concentrations (ATP loss < 30%, not above 100 × Cmax), vs control

CO[C@H]1/C=C/O[C@@]2(C)Oc3c(C)c(O)c4c(O)c(c(/C=N/N5CCN(C)CC5)c(O)c4c3C2=O)NC(=O)/C(C)=C\C=C\[C@H](C)[C@H](O)[C@@H](C)[C@@H](O)[C@@H](C)[C@H](OC(C)=O)[C@@H]1C [RIF, rifampicin]
Loss of cellular ATP relative to the maximum concentration selected for the study (HepaRG cells [1]): 300 µM (loss of cellular ATP above 30% of the controls for higher concentrations, as shown in Supp. fig 1) | Accumulation of neutral lipids (steatosis) (HepaRG cells [2]): significant accumulation of neutral lipids
